IC50 data for 20 compounds are collected here from patent US9199984B2, “Inhibition of enzymes” (CHIESI FARMACEUTICI S.p.A., priority 2012, dated 2015).

Each structure is given as a SMILES string. pIC50: −log10 of the molar value. Some results are limits rather than exact numbers.

This experiment deals with T1, human neutrophil elastase (HNE) (Homo sapiens, UniProt P08246).
T1 construct: purchased Sigma E8140
T1 sequence (P08246 30-247 limits assumed): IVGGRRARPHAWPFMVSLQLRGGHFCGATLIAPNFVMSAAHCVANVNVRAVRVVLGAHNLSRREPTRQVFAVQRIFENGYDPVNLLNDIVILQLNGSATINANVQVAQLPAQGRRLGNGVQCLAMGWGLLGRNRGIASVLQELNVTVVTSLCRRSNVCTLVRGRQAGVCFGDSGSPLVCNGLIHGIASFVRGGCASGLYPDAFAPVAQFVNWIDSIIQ
Put plainly: HNE enzyme activity assay. Particulars: human leukocyte elastase, substrate MeOSuc-Ala-Ala-Pro-Val-AMC 100 μM, 25° C. for 30 minutes, fluorescence; read-out: HNE inhibition. Type of experiment: biochemical. Here is the method:
Compounds of the present invention were tested for potency in a human neutrophil elastase (HNE) enzyme activity assay.
Assays were performed in 96-well plates in a total assay volume of 100 μl. The final concentration of elastase enzyme (human leukocyte elastase, Sigma E8140) was 0.0036 units/well […]. The peptide substrate (MeOSuc-Ala-Ala-Pro-Val-AMC, Calbiochem #324740) was used at a final concentration of 100 μM. The final concentration of DMSO was 1% in the assay buffer (0.05M Tris.HCl, 0.1M NaCl, 0.1M CaCl2, 0.0005% brij-35, pH 7.5). The enzymatic reaction was started by addition of the enzyme and incubated at 25° C. for 30 minutes. After incubation, the reaction was stopped by addition of soybean trypsin inhibitor (Sigma T9003) at a final concentration of 50 μg/well. Fluorescence was measured using a Molecular Devices fluorescence plate reader using 380 nm excitation and 460 nm emission wavelengths.
A dose response to each compound was performed and the effect of compound in each experiment was expressed as a percentage inhibition of the control enzyme fluorescence. Dose response curves were plotted and compound potency (IC50) was determined. Compounds were tested in at least two separate experiments.
As for `Cc1c(-c2ccnn2-c2ccc(C#N)cc2)cn2nc(N)nc2c1-c1cccc(C(F)(F)F)c1` [Example 1, 4-{5-[2-Amino-7-methyl-8-(3-trifluoromethyl-phenyl)-[1,2,4]triazolo[1,5-a]pyridin-6-yl]-pyrazol-1-yl}-benzonitrile], the pIC50 was 7.00 to 7.70.
Next, `Cc1c(-c2ccnn2-c2ccc(C#N)cc2)cn2cc(NC(=O)C(F)(F)F)nc2c1-c1cccc(C(F)(F)F)c1` [Example 2]: 6.30 to 7.00; `Cc1c(-c2ccnn2-c2ccc(C#N)cc2)cn2ncnc2c1-c1cccc(C(F)(F)F)c1` [Example 3, 4-{5-[7-Methyl-8-(3-trifluoromethyl-phenyl)-[1,2,4]triazolo[1,5-a]pyridin-6-yl]-pyrazol-1-yl}-benzonitrile]: above 7.70.
Next, `Cc1nc2c(-c3cccc(C(F)(F)F)c3)c(C)c(-c3ccnn3-c3ccc(C#N)cc3)cn2n1` [Example 4, 4-{5-[2,7-Dimethyl-8-(3-trifluoromethyl-phenyl)-[1,2,4]triazolo[1,5-a]pyridin-6-yl]-pyrazol-1-yl}-benzonitrile]: below 6.30.
In the case of `Cc1cn2cc(-c3ccnn3-c3ccc(C#N)cc3)c(C)c(-c3cccc(C(F)(F)F)c3)c2n1` [Example 5, 4-{5-[2,7-Dimethyl-8-(3-trifluoromethyl-phenyl)-imidazo[1,2-a]pyridin-6-yl]-pyrazol-1-yl}-benzonitrile] it was below 6.30; in that of `Cc1c(-c2ccnn2-c2ccc(C#N)cc2)cn2ccnc2c1-c1cccc(C(F)(F)F)c1` [Example 6, 4-{5-[7-Methyl-8-(3-trifluoromethyl-phenyl)-imidazo[1,2-a]pyridin-6-yl]-pyrazol-1-yl}-benzonitrile], 7.00 to 7.70.
For `Cc1c(-c2ccnn2-c2ccc(C#N)cc2)cn2nc(Nc3ccc(S(C)(=O)=O)cc3)nc2c1-c1cccc(C(F)(F)F)c1` [Example 7, 4-{5-[2-(4-Methanesulfonyl-phenylamino)-7-methyl-8-(3-trifluoromethyl-phenyl)-[1,2,4]triazolo[1,5-a]pyridin-6-yl]-pyrazol-1-yl}-benzonitrile], the pIC50 was above 7.70.
As to `Cc1c(-c2ccnn2-c2ccc(C#N)cc2)cn2nc(Cc3ccc(S(C)(=O)=O)cc3)nc2c1-c1cccc(C(F)(F)F)c1` [Example 8, 4-{5-[2-(4-Methanesulfonyl-benzyl)-7-methyl-8-(3-trifluoromethyl-phenyl)-[1,2,4]triazolo[1,5-a]pyridin-6-yl]-pyrazol-1-yl}-benzonitrile], the pIC50 was 6.30 to 7.00.
As to `Cc1c(-c2ccnn2-c2ccc(C#N)cc2)cn2c(=O)[nH]nc2c1-c1cccc(C(F)(F)F)c1` [Example 9, 4-{5-[7-Methyl-3-oxo-8-(3-trifluoromethyl-phenyl)-2,3-dihydro-[1,2,4]triazolo[4,3-a]pyridin-6-yl]-pyrazol-1-yl}-benzonitrile], the pIC50 is above 7.70.
In the case of `Cc1c(-c2ccnn2-c2ccc(C#N)cc2)cn2c(=O)n(Cc3ccc(S(C)(=O)=O)cc3)nc2c1-c1cccc(C(F)(F)F)c1` [Example 10, 4-{5-[2-(4-Methanesulfonyl-benzyl)-7-methyl-3-oxo-8-(3-trifluoromethyl-phenyl)-2,3-dihydro-[1,2,4]triazolo[4,3-a]pyridin-6-yl]-pyrazol-1-yl}-benzonitrile] it was 6.30 to 7.00.
In the case of `Cc1c(-c2ccnn2-c2ccc(C#N)cc2)cn2c(=O)n(CC(=O)N(C)C)nc2c1-c1cccc(C(F)(F)F)c1` [Example 11, 2-[6-[2-(4-Cyano-phenyl)-2H-pyrazol-3-yl]-7-methyl-3-oxo-8-(3-trifluoromethyl-phenyl)-[1,2,4]triazolo[4,3-a]pyridin-2-yl]-N,N-dimethyl-acetamide] it was below 6.30; in that of `CNC(=O)Cn1nc2c(-c3cccc(C(F)(F)F)c3)c(C)c(-c3ccnn3-c3ccc(C#N)cc3)cn2c1=O` [Example 12, 2-[6-[2-(4-Cyano-phenyl)-2H-pyrazol-3-yl]-7-methyl-3-oxo-8-(3-trifluoromethyl-phenyl)-[1,2,4]triazolo[4,3-a]pyridin-2-yl]-N-methyl-acetamide], 6.30 to 7.00; in that of `Cc1c(-c2ccnn2-c2ccc(C#N)cc2)cn2c(=O)n(CCCS(C)(=O)=O)nc2c1-c1cccc(C(F)(F)F)c1` [Example 13, 4-{5-[2-(3-Methanesulfonyl-propyl)-7-methyl-3-oxo-8-(3-trifluoromethyl-phenyl)-2,3-dihydro-[1,2,4]triazolo[4,3-a]pyridin-6-yl]-pyrazol-1-yl}-benzonitrile], 6.30 to 7.00.
In the case of `Cc1c(-c2ccnn2-c2ccc(C#N)cc2)cn2nc(NC(=O)CN(C)C)nc2c1-c1cccc(C(F)(F)F)c1` [Example 14, N-[6-[2-(4-Cyano-phenyl)-2H-pyrazol-3-yl]-7-methyl-8-(3-trifluoromethyl-phenyl)-[1,2,4]triazolo[1,5-a]pyridin-2-yl]-2-dimethylamino-acetamide] it was above 7.70.
For the compound `Cc1c(-c2ccnn2-c2ccc(C#N)cc2)cn2nc(NC(=O)C[N+](C)(C)C)nc2c1-c1cccc(C(F)(F)F)c1` [Example 15, {[6-[2-(4-Cyano-phenyl)-2H-pyrazol-3-yl]-7-methyl-8-(3-trifluoromethyl-phenyl)-[1,2,4]triazolo[1,5-a]pyridin-2-ylcarbamoyl]-methyl}-trimethyl-ammonium bromide], the pIC50 is 7.00 to 7.70.
In the case of `Cc1c(-c2ccnn2-c2ccc(C#N)cc2)cn2nc(NC(=O)CCCN(C)C)nc2c1-c1cccc(C(F)(F)F)c1` [Example 16, N-[6-[2-(4-Cyano-phenyl)-2H-pyrazol-3-yl]-7-methyl-8-(3-trifluoromethyl-phenyl)-[1,2,4]triazolo[1,5-a]pyridin-2-yl]-4-dimethylamino-butyramide] it was above 7.70.
In the case of `Cc1c(-c2ccnn2-c2ccc(C#N)cc2)cn2nc(NC(=O)CCC[N+](C)(C)C)nc2c1-c1cccc(C(F)(F)F)c1` [Example 17, {3-[6-[2-(4-Cyano-phenyl)-2H-pyrazol-3-yl]-7-methyl-8-(3-trifluoromethyl-phenyl)-[1,2,4]triazolo[1,5-a]pyridin-2-ylcarbamoyl]-propyl}-trimethyl-ammonium bromide] it was above 7.70; in that of `Cc1c(-c2ccnn2-c2ccc(C#N)cc2)cn2nc(NC(=O)CN3CCN(C)CC3)nc2c1-c1cccc(C(F)(F)F)c1` [Example 18, N-[6-[2-(4-Cyano-phenyl)-2H-pyrazol-3-yl]-7-methyl-8-(3-trifluoromethyl-phenyl)-[1,2,4]triazolo[1,5-a]pyridin-2-yl]-2-(4-methyl-piperazin-1-yl)-acetamide], above 7.70; in that of `Cc1c(-c2ccnn2-c2ccc(C#N)cc2)cn2nc(NC(=O)CN3CC[N+](C)(C)CC3)nc2c1-c1cccc(C(F)(F)F)c1` [Example 19, 4-{[6-[2-(4-Cyano-phenyl)-2H-pyrazol-3-yl]-7-methyl-8-(3-trifluoromethyl-phenyl)-[1,2,4]triazolo[1,5-a]pyridin-2-ylcarbamoyl]-methyl}-1,1-dimethyl-piperazin-1-ium iodide], above 7.70.
In the case of `Cc1c(-c2ccnn2-c2ccc(C#N)cc2)cn2nc(NC(=O)CN3CCOCC3)nc2c1-c1cccc(C(F)(F)F)c1` [Example 20, N-[6-[2-(4-Cyano-phenyl)-2H-pyrazol-3-yl]-7-methyl-8-(3-trifluoromethyl-phenyl)-[1,2,4]triazolo[1,5-a]pyridin-2-yl]-2-morpholin-4-yl-acetamide] it was above 7.70.
